Converted amounts (≈) assume the structure as drawn. Marks after values point to notes of the source that are not given here.

For assay [1], the system named is HDF (human dermal fibroblasts). Briefly: Acute cytotoxicity, resazurin assay. The format is cell-based. Particulars: 72 h. From the text: (§1) To test the acute cytotoxicity of the compounds, the following cell lines were used: primary human renal tubular epithelial cells (HRTEC; Evercyte, Vienna, Austria); human keratinocytes (HaCat; Thermo Fisher Scientific, Waltham, MA, USA); human dermal fibroblasts (HDF; Merck, Kenilworth, NJ, USA); human epithelial kidney cells (HEK 293; ATCC, Manassas, VI, USA); primary human coronary artery endothelial cells (HCAEC; ATCC, Manassas, VI, USA). The cell lines were maintained in a proper cultivation medium—HaCat, HDF, and Hek 293 in DMEM; HRTEC in VCB; HCAEC in ProxUp. The cytotoxicity experiment was realized according to Tran et al.. Briefly, the cells were counted by the Cellometer Auto T4 (Nexcelom Bioscience, Lawrence, MA, USA), and the cell suspension containing a cell density of 10^5 cells/mL was split into the 96-well plate, with 100 µL per well. The plates were then incubated for 24 h at 37 °C in a humidified atmosphere of 5% CO2. Then, the plates were washed three times with PBS, and the tested natural compounds were added using binary dilution in a proper medium. After 72 h of incubation, the cell viability was tested by resazurin assay. The fluorescence was measured by a SpectraMax i3× microplate reader (San Jose, CA, USA) at a wavelength of 560 nm excitation/590 nm emission.
(§2) The cytotoxicity results are expressed as the average IC50 ± standard error of the mean (SEM). Values of IC50 were obtained by using the online tool Quest Graph IC50 Calculator (AAT Bioquest Inc., Sunnyvale, CA, USA). One-way analysis of variance (ANOVA) was used followed by Duncan’s post hoc test (p < 0.05) to show the differences between the groups. For ANOVA, the Statistica software (Tibco Software Inc., Palo Alto, CA, USA) was used in version 12.
On the technique in general: Resazurin is reduced to fluorescent resorufin, in cell work by metabolically active cells.

For assay [2], the system named is HaCat (human keratinocytes). Briefly: Acute cytotoxicity, resazurin assay. The class given is cell-based. Particulars: 72 h.
Source text: as §1, §2

For assay [3], the system named is HEK 293 (human epithelial kidney cells). Briefly: Acute cytotoxicity, resazurin assay. The format is cell-based.
Source text: as §1, §2

The test system of assay [4] is HRTEC (primary human renal tubular epithelial cells). Briefly: Acute cytotoxicity, resazurin assay. The class given is cell-based. Particulars: 72 h.
Source text: as §1, §2

Assay [5] deals with HCAEC (primary human coronary artery endothelial cells). Briefly: Acute cytotoxicity, resazurin assay. The class given is cell-based. Particulars: 72 h.
Source text: as §1, §2

The subject of assay [6] is S. Enteritidis ATCC 13076. Briefly: MIC for reduction of preformed biofilm (crystal violet staining). The format is cell-based, Salmonella enterica Enteritidis. Particulars: for MICBR80: ≥80% reduction of preformed biofilm (18 h), 20 h with substance. The procedure:
(§3) Ten concentrations of NAC, RLs, and UA were tested to determine the minimum inhibitory concentration for planktonic growth, and subsequently, the six highest concentrations were applied on preformed biofilms to evaluate the biofilm eradication ability of the compounds. MIC was defined as the lowest substance concentration able to inhibit at least 80% of microbial growth (MICPC80 for planktonic cells, MICBC80 for further growth of biofilm cells), inhibit 80% of metabolic activity (MICBM80 for biofilm metabolic activity, MICMPB80 for metabolic activity of preformed biofilm), prevent biofilm formation by at least 80% (MICBF80 for biofilm formation), or reduce a preformed biofilm by at least 80% (MICBR80 for biofilm reduction). The results of MICs are summarized in Table 1 (planktonic cells) and Table 2 (biofilm-associated cells).
The determination of MICs was performed according to Chlumsky et al.. […] To evaluate planktonic cells growth (MICPC80) and further growth of biofilm cells (MICBC80), the optical density of the content of the microtiter plates was measured spectrophotometrically at 625 nm before and after 24 h (for biofilm formation) of cultivation or before and after additional 20 h incubation with the tested compound (for preformed biofilm). […] To evaluate the inhibition of biofilm formation (MICBF80) and reduction in preformed biofilms (MICBR80), biomass was quantified using crystal violet staining, and its metabolic activity (MICBM80 and MICMPB80) was estimated by using the MTT (thiazyl tetrazolium bromide, Sigma-Aldrich, USA) reduction assay, both measured spectrophotometrically at 595 nm.
All inhibitions were calculated using the formula of Chlumsky et al. below (Equation (1)):(1) A625(595)nm inhibition (%)=A625(595)nm (control) – A625(595)nm(natural substance)/A625(595)nm (control)× 100 where A625(595)nm (control) is the absorbance of bacterial suspension/biofilm itself, and A625(595)nm(natural substance) is the absorbance of the bacterial suspension/biofilm with the added natural substance (NAC, RLs, and UA). […]

A further assay deals with S. Infantis S13. Briefly: MIC for biofilm metabolic activity (MTT reduction assay). The class given is cell-based, Salmonella enterica Infantis. The conditions noted are these: for MICBM80: ≥80% inhibition, 24 h. The procedure:
as §3
(§4) The determination of MICs was performed according to Chlumsky et al.. Briefly, 96-well flat-bottomed microtiter plates were inoculated with 75 µL (for biofilm formation) or 100 µL (for preformed biofilm) of bacterial suspension (A625nm 0.08 to 0.1) in technical triplicates and were then carefully mixed with the dilution series of the test substances (24 h cultivation at 25 °C for S. Infantis, 37 °C for other strains) or were directly cultivated to preform biofilms (18 h). For a positive control of bacterial growth, the inoculum was mixed with a pure sterile medium. Furthermore, the sterile medium was included in the plate as a marker of potential microbial contamination. To evaluate planktonic cells growth (MICPC80) and further growth of biofilm cells (MICBC80), the optical density of the content of the microtiter plates was measured spectrophotometrically at 625 nm before and after 24 h (for biofilm formation) of cultivation or before and after additional 20 h incubation with the tested compound (for preformed biofilm). The difference of A625nm was considered as a measure of the ability of cells to grow in the presence of the tested substances. To evaluate the inhibition of biofilm formation (MICBF80) and reduction in preformed biofilms (MICBR80), biomass was quantified using crystal violet staining, and its metabolic activity (MICBM80 and MICMPB80) was estimated by using the MTT (thiazyl tetrazolium bromide, Sigma-Aldrich, USA) reduction assay, both measured spectrophotometrically at 595 nm.
(§5) All inhibitions were calculated using the formula of Chlumsky et al. below (Equation (1)):(1) A625(595)nm inhibition (%)=A625(595)nm (control) – A625(595)nm(natural substance)/A625(595)nm (control)× 100 where A625(595)nm (control) is the absorbance of bacterial suspension/biofilm itself, and A625(595)nm(natural substance) is the absorbance of the bacterial suspension/biofilm with the added natural substance (NAC, RLs, and UA).
(§6) When the minimum inhibitory concentration could not be determined, the MIC was established as >the highest tested concentration for NAC, RLs, and UA.

In a further assay the test system is S. Infantis S59. The description is as above. The format is cell-based, Salmonella enterica Infantis. The conditions noted are these: for MICBM80: ≥80% inhibition, 24 h. The procedure: as §3, §4, §5, §6

On to `CC(=O)c1c(O)c(C)c(O)c2c1OC1=CC(=O)C(C(C)=O)C(=O)C12C` (single isomer, unassigned; (+)) [UA, (+)-usnic acid], for which the “IC50 (µg/mL)” value was 4.35 ± 0.41 ^f µg/mL in assay [1] (HDF, cytotoxicity, resazurin, average of 3 repetitions with SEM); 0.59 ± 0.14 ^h µg/mL in assay [2] (HaCat, cytotoxicity, resazurin, average of 3 repetitions with SEM); 2.75 ± 0.22 ^g µg/mL in assay [3] (HEK 293, cytotoxicity, 72 h, resazurin, average of 3 repetitions with SEM); 3.06 ± 0.17 ^g µg/mL in assay [4] (HRTEC, cytotoxicity, resazurin, average of 3 repetitions with SEM); 0.03 ± 0.01 ^i µg/mL in assay [5] (HCAEC, cytotoxicity, resazurin, average of 3 repetitions with SEM). In assay [6] (preformed biofilm, within tested concentrations), the “maximal achieved inhibition (MICBR80 not reached), biofilm reduction” value was found to be 0%. The molecule also returned an MICBR80 in assay [6] of more than 31.3 µg/mL. For the same molecule, the “maximal achieved inhibition (MICBM80 not reached)” value amounted to 41% in the assay on S. Infantis S13 (within tested concentrations) and 47% with S. Infantis S59 (within tested concentrations). Moreover, the MICBM80 in the assay with S. Infantis S13 and against S. Infantis S59 was more than 31.3 µg/mL throughout.
On to `CC(=O)N[C@@H](CS)C(=O)O` [NAC, N-Acetyl-L-cysteine], for which the IC50 is 460 ± 20 µg/mL (≈ 2.82 mM) in assay [1] (Homo sapiens, Fibroblast); 4020 ± 470 µg/mL (≈ 24.6 mM) in assay [2] (Homo sapiens, HaCaT); 1940 ± 250 µg/mL (≈ 11.9 mM) in assay [3] (Homo sapiens, HEK293, 72 h); 1570 ± 70 µg/mL (≈ 9.62 mM) in assay [4] (Homo sapiens, Epithelial cell); 1830 ± 90 µg/mL (≈ 11.2 mM) in assay [5] (Homo sapiens, Endothelial cell). In addition, in assay [6], the MICBR80 is reported as 12,500 µg/mL. Besides, the MICBM80 in the assay with S. Infantis S13 is recorded as 12,500 µg/mL; with S. Infantis S59, 6250 µg/mL.

As a reminder, the IC50 is the point on the concentration scale where inhibition reaches its midpoint. The low end stands for greater potency, the high end for weaker potency.

The values above are taken from article PMC8583417, “Evaluation of the Antimicrobial Efficacy of N-Acetyl-L-Cysteine, Rhamnolipids, and Usnic Acid—Novel Approaches to Fight Food-Borne Pathogens” (International Journal of Molecular Sciences, 2021).
